Patent US7829542B2, “Prophylactic and therapeutic treatment of infectious and other diseases with immunoeffector compounds” (Corixa Corporation, priority 2002, dated 2010)

Experiments:
[1] = test system: L. monocytogenes 10403 serotype; assay: Murine Listeria monocytogenes challenge model (induction of non-specific resistance); format: in vivo, mice; settings: 1 μg intravenously in 0.2% TEOA, i.v. challenge with ~10^5 L. monocytogenes two days later, spleen CFUs two days after challenge
Method: This example provides experiments evaluating the induction of non-specific resistance in the murine Listeria monocytogenes challenge model performed using the compounds prepared in examples 1, 2 and 3. Mice (5 per group) were treated intravenously with the 1 μg of a cyclic AGP or MPL solublized in 0.2% triethanolamine (TEOA). Two days later the mice were challenged intravenously with a ˜10^5 L. monocytogenes 10403 serotype (stock culture provided by Jory Baldridge, Washington State University, Pullman, Wash.). Two days after the challenge the mice were sacrificed and the number of colony forming units (CFUs) in the spleens of individual mice were determined by plating 10-fold serial dilutions of splenic homogenates on tryptic soy agar plates. The degree of protection afforded by a given AGP or MPL was calculated by subtracting the average number of bacteria per spleen (log 10 value) in the group of mice treated with a given compound, from the average number of bacteria per spleen (log 10 value) in a control group that was “sham” treated with vehicle (0.2% TEOA) prior to challenge with L. monocytogenes.

[2] = test system: Influenza A/HK/68; assay: Protection against lethal influenza challenge by prophylactic administration; format: in vivo, BALB/c mice; settings: 20 μg intranasally 48 hours prior to lethal intranasal challenge (5 LD50)
Method: This example provides experiments evaluating protection against a lethal challenge with influenza in cyclic AGP-treated mice. BALB/c mice (10 mice per group) were treated intranasally with 20 μg of the compounds of examples 1, 2 and 3, or with MPL, 48 hours prior to an lethal intranasal challenge of Influenza A/HK/68 (5 LD50). Protection was judged by survival, observations of clinical symptoms (ruffled fur, hunched posture and labored breathing), and prevention of weight loss for 21 days following the challenge.

| Compound | degree of protection: average bacteria per spleen (log 10) in the vehicle control group minus that in the treated group [1] [log 10 units] | protection compared with the vehicle control (in words) [2] | survival rate ([2]; followed for 21 days) [%] | survival (in words) ([2]; followed for 21 days) |
| --- | --- | --- | --- | --- |
| CCCCCCCCCCCC(=O)O[C@H](CCCCCCCCCCC)CC(=O)N[C@H]1[C@H](OC[C@@H]2CCCN2C(=O)C[C@@H](CCCCCCCCCCC)OC(=O)CCCCCCCCCCC)O[C@H](CO)[C@@H](OP(=O)(O)O)[C@@H]1OC(=O)C[C@@H](CCCCCCCCCCC)OC(=O)CCCCCCCCCCC.CCN(CC)CC [Example 2, N-[(R)-3-Dodecanoyloxytetradecanoyl]-(S)-2-pyrrolidinylmethyl 2-Deoxy-4-O-phosphono-2-[(R)-3-dodecanoyloxy-tetradecanoylamino]-3-O-[(R)-3-dodecanoyloxytetradecanoyl]-β-D-glucopyranoside Triethylammonium Salt] | 0.7 | enhanced protection | 40 | – |
| CCCCCCCCCCC[C@H](CC(=O)N[C@H]1[C@H](OC[C@@H]2CCCN2C(=O)C[C@@H](CCCCCCCCCCC)OC(=O)CCCCCCCCC)O[C@H](CO)[C@@H](OP(=O)(O)O)[C@@H]1OC(=O)C[C@@H](CCCCCCCCCCC)OC(=O)CCCCCCCCC)OC(=O)CCCCCCCCC.CCN(CC)CC [Example 3, N-[(R)-3-Decanoyloxytetradecanoyl]-(S)-2-pyrrolidinylmethyl 2-Deoxy-4-O-phosphono-2-[(R)-3-Decanoyloxytetradecanoylamino]-3-O-[(R)-3-Decanoyloxytetradecanoyl]-β-D-glucopyranoside Triethylammonium Salt] | ~0.9 | enhanced protection | 60 | – |
| N-[(R)-3-Tetradecanoyloxytetradecanoyl]-(S)-2-pyrrolidinylmethyl 2-Deoxy-4-O-phosphono-2-[(R)-3-tetradecanoyloxytetradecanoylamino]-3-O-[(R)-3-tetradecanoyloxytetradecanoyl]-β-D-glucopyranoside Triethylammonium Salt [Example 1] | 0.2 | – | – | No mice treated with the compound of example 1 survived |
